In ChEMBL document CHEMBL5584338, “Design, Synthesis, and Biological Evaluation of 5-Amino-4-fluoro-1H-benzo[d]imidazole-6-carboxamide Derivatives as Novel and Potential MEK/RAF Complex Inhibitors Based on the "Clamp" Strategy” (J Med Chem, 2024):

Legend:
[1] = test system: MIA PaCa-2; assay: Antiproliferative activity against human MIA PaCa-2 cells harboring KRAS G12C mutant at 0.1 uM incubated for 72 hrs by CCK8 assay relative to control; type: functional
[2] = test system: HCT-116; assay: Antiproliferative activity against human HCT-116 cells harboring KRAS G13D mutant at 1 uM incubated for 72 hrs by CCK8 assay relative to control; type: functional
[3] = biological target: Dual specificity mitogen-activated protein kinase kinase 1 (Homo sapiens, UniProt Q02750); assay: Inhibition of MEK1 (unknown origin) assessed as remaining activity at 0.1 uM relative to control
Sequence of Dual specificity mitogen-activated protein kinase kinase 1 (Q02750 whole entry): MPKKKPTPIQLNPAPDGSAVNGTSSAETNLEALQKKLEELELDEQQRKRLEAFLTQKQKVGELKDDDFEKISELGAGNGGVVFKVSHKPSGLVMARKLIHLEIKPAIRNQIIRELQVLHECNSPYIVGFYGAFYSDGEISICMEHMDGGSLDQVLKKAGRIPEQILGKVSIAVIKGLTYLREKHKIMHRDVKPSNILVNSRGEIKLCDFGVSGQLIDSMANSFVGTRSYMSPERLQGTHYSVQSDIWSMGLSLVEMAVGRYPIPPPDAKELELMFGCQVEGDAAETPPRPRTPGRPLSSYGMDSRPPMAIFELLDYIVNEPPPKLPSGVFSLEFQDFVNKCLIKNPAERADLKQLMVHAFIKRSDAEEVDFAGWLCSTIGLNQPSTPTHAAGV

[4] = biological target: Serine/threonine-protein kinase B-raf (Homo sapiens, UniProt P15056); assay: Inhibition of BRAF (unknown origin) assessed as remaining activity at 0.1 uM relative to control
Sequence of Serine/threonine-protein kinase B-raf (P15056 whole entry): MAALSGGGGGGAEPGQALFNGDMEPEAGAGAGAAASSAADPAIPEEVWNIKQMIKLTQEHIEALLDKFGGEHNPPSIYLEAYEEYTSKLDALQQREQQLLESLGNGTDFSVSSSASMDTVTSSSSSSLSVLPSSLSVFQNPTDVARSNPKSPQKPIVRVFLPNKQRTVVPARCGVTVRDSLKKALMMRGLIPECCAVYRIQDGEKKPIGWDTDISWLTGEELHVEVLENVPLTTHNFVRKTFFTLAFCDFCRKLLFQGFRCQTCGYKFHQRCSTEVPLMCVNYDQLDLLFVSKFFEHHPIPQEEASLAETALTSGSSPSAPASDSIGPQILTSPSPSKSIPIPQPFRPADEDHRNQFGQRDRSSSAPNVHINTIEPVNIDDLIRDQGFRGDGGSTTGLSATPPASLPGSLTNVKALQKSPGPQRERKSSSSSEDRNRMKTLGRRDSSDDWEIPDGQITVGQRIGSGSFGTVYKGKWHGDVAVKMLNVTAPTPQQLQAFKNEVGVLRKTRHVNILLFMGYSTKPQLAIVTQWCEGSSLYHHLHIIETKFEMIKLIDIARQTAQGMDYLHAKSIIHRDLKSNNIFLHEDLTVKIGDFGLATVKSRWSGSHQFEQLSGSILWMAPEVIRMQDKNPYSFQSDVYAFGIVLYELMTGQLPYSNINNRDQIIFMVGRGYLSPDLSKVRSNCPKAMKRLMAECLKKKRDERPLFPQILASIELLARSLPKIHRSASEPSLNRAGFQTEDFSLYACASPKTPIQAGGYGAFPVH

[5] = test system: MIA PaCa-2; assay: Antiproliferative activity against human MIA PaCa-2 cells harboring KRAS G12C mutant incubated for 72 hrs by CCK8 assay; type: functional, cell-based; conditions: MIA PaCa-2, 72 h
[6] = test system: HCT-116; assay: Antiproliferative activity against human HCT-116 cells harboring KRAS G13D mutant incubated for 72 hrs by CCK8 assay; type: functional, cell-based; conditions: HCT-116, 72 h

| Activity [3] | Activity [4] | IC50 [5] | IC50 [6] | Compound | inhibition at 0.1 µM [1] | inhibition at 1 µM [2] |
| --- | --- | --- | --- | --- | --- | --- |
| 88% | 35% |  |  | O=C(NOCCO)c1cc2c(ncn2Cc2cccc(NC(=O)C3CCCCC3)c2)c(F)c1Nc1ccc(C2CC2)cc1F | 11.5% | 13.7% |
| 89% | 75% | 985 nM |  | CCC(=O)Nc1cccc(Cn2cnc3c(F)c(Nc4ccc(C5CC5)cc4F)c(C(=O)NOCCO)cc32)c1 | 18% | 17.8% |
| 55% | 4% | 150 nM | 132 nM | CC(C)NS(=O)(=O)Nc1cccc(Cn2cnc3c(F)c(Nc4ccc(C5CC5)cc4F)c(C(=O)NOCCO)cc32)c1 | 65.9% | 59.3% |
| 54% | 4% | 219 nM | 457 nM | CCNS(=O)(=O)Nc1cccc(Cn2cnc3c(F)c(Nc4ccc(C)cc4F)c(C(=O)NOCCO)cc32)c1F | 55.7% | 57.6% |
| 53% | 5% | 47 nM | 173 nM | CNS(=O)(=O)Nc1cc(F)cc(Cn2cnc3c(F)c(Nc4ccc(C5CC5)cc4F)c(C(=O)NOCCO)cc32)c1 | 65.8% | 57.4% |
|  |  |  |  | CCNS(=O)(=O)Nc1cc(Cn2cnc3c(F)c(Nc4ccc(C5CC5)cc4F)c(C(=O)NOCCO)cc32)ccc1F | 34.5% | 17.5% |
| 85% | 16% | 611 nM |  | CNS(=O)(=O)Nc1cc(Cn2cnc3c(F)c(Nc4ccc(C5CC5)cc4F)c(C(=O)NOCCO)cc32)ccc1F | 31.6% | 35.2% |
|  |  |  |  | CNS(=O)(=O)Nc1cccc(Cn2cnc3c(F)c(F)c(C(=O)NOCCO)cc32)c1F | 24.7% | 14.8% |
| 15% | 3% |  |  | CNS(=O)(=O)Nc1cccc(Cn2cnc3c(F)c(Nc4ccc(Br)cc4F)c(C(=O)NOCCO)cc32)c1Cl | 28.4% | 47.8% |
| 76% | 5% | 249 nM | 898 nM | CNS(=O)(=O)Nc1cccc(Cn2cnc3c(F)c(Nc4ccc(C5CCC5)cc4F)c(C(=O)NOCCO)cc32)c1F | 52.8% | 48.5% |
|  |  |  |  | CCNS(=O)(=O)Nc1cccc(Cn2cnc3c(F)c(Nc4ccc(Br)cc4F)c(C(=O)NOCCO)cc32)c1Cl | 21.9% | 39.8% |
| 76% | 32% | 1280 nM |  | O=C(NOCCO)c1cc2c(ncn2Cc2cccc(NC(=O)C3CCC3)c2)c(F)c1Nc1ccc(C2CC2)cc1F | 38.9% | 25.1% |
| 8% | 1% | 43 nM | 202 nM | CCNS(=O)(=O)Nc1cccc(Cn2cnc3c(F)c(Nc4ccc(I)cc4F)c(C(=O)NOCCO)cc32)c1F | 65.3% | 69.1% |
| 80% | 5% | 48 nM | 425 nM | CC(C)CNS(=O)(=O)Nc1cccc(Cn2cnc3c(F)c(Nc4ccc(C5CC5)cc4F)c(C(=O)NOCCO)cc32)c1 | 55.8% | 60.2% |
| 91% | 71% |  |  | O=C(NOCCO)c1cc2c(ncn2Cc2cccc(NC(=O)C3CCCC3)c2)c(F)c1Nc1ccc(C2CC2)cc1F | -29.7% | 4.21% |
|  |  |  |  | CCNS(=O)(=O)Nc1ccc(F)c(Cn2cnc3c(F)c(Nc4ccc(C5CC5)cc4F)c(C(=O)NOCCO)cc32)c1 | -38.8% | 17.5% |

| Activity [3] | Activity [4] | IC50 [5] | IC50 [6] | Compound | inhibition at 0.1 µM [1] | inhibition at 1 µM [2] |
| --- | --- | --- | --- | --- | --- | --- |
|  |  | 182 nM | 2000 nM | Cn1cnc2c(F)c(Nc3ccc(Br)cc3F)c(C(=O)NOCCO)cc21 [BINIMETINIB] | 58.8% | 41.4% |
|  |  |  |  | CNS(=O)(=O)N1CCC(Cn2cnc3c(F)c(Nc4ccc(C5CC5)cc4F)c(C(=O)NOCCO)cc32)C1 (stereo not given) | -13.4% | 2.43% |
| 20% | 3% | 31 nM | 731 nM | CCNS(=O)(=O)Nc1cccc(Cn2cnc3c(F)c(Nc4ccc(C5CC5)cc4F)c(C(=O)NOCCO)cc32)c1Cl | 76% | 49.6% |
| 9% | 0% | 127 nM | 377 nM | CCNS(=O)(=O)Nc1cccc(Cn2cnc3c(F)c(Nc4ccc(I)cc4F)c(C(=O)NOCCO)cc32)c1Cl | 43.1% | 61.4% |
|  |  |  |  | CCNS(=O)(=O)Nc1cccc(Cn2cnc3c(F)c(Nc4ccc(C5CCCC5)cc4F)c(C(=O)NOCCO)cc32)c1F | 6.88% | 26.9% |
| 58% | 3% | 861 nM | 694 nM | CNS(=O)(=O)Nc1cccc(Cn2cnc3c(F)c(Nc4ccc(C)cc4F)c(C(=O)NOCCO)cc32)c1F | 57.7% | 74.8% |
| 98% | 13% |  |  | CNS(=O)(=O)Nc1cccc(Cn2cnc3c(F)c(Nc4ccc(C5CCCC5)cc4F)c(C(=O)NOCCO)cc32)c1F | 12.1% | 24.8% |
| 75% | 6% | 138 nM |  | CS(=O)(=O)Nc1cccc(Cn2cnc3c(F)c(Nc4ccc(C5CC5)cc4F)c(C(=O)NOCCO)cc32)c1 | 50.5% | 46.2% |
| 79% | 21% |  |  | CNS(=O)(=O)Nc1ccc(F)c(Cn2cnc3c(F)c(Nc4ccc(C5CC5)cc4F)c(C(=O)NOCCO)cc32)c1 | 7.1% | 12% |
| 5% | 1% | 60 nM | 352 nM | CNS(=O)(=O)Nc1cccc(Cn2cnc3c(F)c(Nc4ccc(I)cc4F)c(C(=O)NOCCO)cc32)c1Cl | 60.8% | 66.7% |
|  |  |  |  | CNS(=O)(=O)N1CCCC(Cn2cnc3c(F)c(Nc4ccc(C5CC5)cc4F)c(C(=O)NOCCO)cc32)C1 (stereo not given) | 31.1% | -9.58% |
| 59% | 5% | 32 nM | 140 nM | CCNS(=O)(=O)Nc1cc(F)cc(Cn2cnc3c(F)c(Nc4ccc(C5CC5)cc4F)c(C(=O)NOCCO)cc32)c1 | 76.5% | 56.7% |
| 19% | 3% | 169 nM | 626 nM | CNS(=O)(=O)Nc1cccc(Cn2cnc3c(F)c(Nc4ccc(C5CC5)cc4F)c(C(=O)NOCCO)cc32)c1Cl | 62.6% | 55.6% |
| 84% | 4% | 942 nM |  | CCNS(=O)(=O)Nc1cccc(Cn2cnc3c(F)c(Nc4ccc(C5CCC5)cc4F)c(C(=O)NOCCO)cc32)c1F | 29% | 56.2% |
|  |  | 628 nM |  | O=C(NOCCO)c1cc2c(ncn2Cc2cccc(NC(=O)C3CC3)c2)c(F)c1Nc1ccc(C2CC2)cc1F | 45% | 19.3% |
|  |  |  |  | CCNS(=O)(=O)Nc1cccc(Cn2cnc3c(F)c(F)c(C(=O)NOCCO)cc32)c1F | 6.04% | 10.8% |
